# Source: PMC6688997 (Nature Communications, 2019)
# Where “and” joins values, the source holds several entries; their conditions need not be identical. Identical values can stand only once. Like-named read-outs stand apart in the source and are kept apart here.
# How the values were obtained:
# [1] = tested on: Ba/F3-CD74-ROS1 cells (WT); assay: CellTiter-Glo cell viability assay; assay type: cell-based, murine; details: Mus musculus
# [2] = tested on: Ba/F3-CD74-ROS1 L1951R cells; assay: CellTiter-Glo cell viability assay; assay type: cell-based, murine; details: Mus musculus
# [3] = tested on: Ba/F3-CD74-ROS1 L2026M cells; assay: CellTiter-Glo cell viability assay; assay type: cell-based, murine; details: Mus musculus
# [4] = tested on: Ba/F3-CD74-ROS1 G2032R cells; assay: CellTiter-Glo cell viability assay; assay type: cell-based, murine; details: Mus musculus
# [5] = tested on: Ba/F3-CD74-ROS1 D2033N cells; assay: CellTiter-Glo cell viability assay; assay type: cell-based, murine; details: Mus musculus
# [6] = tested on: parental Ba/F3 cells (with IL-3); assay: CellTiter-Glo cell viability assay; assay type: cell-based, murine; details: Mus musculus
# [7] = tested on: Ba/F3-TPM3-NTRK1 cells (WT); assay: CellTiter-Glo cell viability assay; assay type: cell-based, murine; details: Mus musculus, 72 h
# [8] = tested on: SLC34A2-ROS1-G2032R overexpressing HCC78xe3 cells; assay: Cell viability in 3D culture, CellTiter-Glo; assay type: cell-based; details: 72 h
# [9] = tested on: phospho-ROS1 in JFCR-165 cells; assay: Immunoblot of ROS1 autophosphorylation; assay type: cell-based, human; details: 6 h
# Description: (§1) Lysates were prepared using 1x SDS lysis buffer (1% SDS and 10% glycerol in 100 mM Tris–HCl [pH 7.5])[27]. […] All the primary antibody was used 1:1000 dilution for immunoblot analysis.
# [10] = tested on: phospho-ROS1 in JFCR-168 cells; assay: Immunoblot of ROS1 autophosphorylation; assay type: cell-based, human; details: 6 h
# Description: as §1
# [11] = tested on: phospho-ROS1 in MGH193-1B cells; assay: Immunoblot of ROS1 autophosphorylation; assay type: cell-based, human; details: 6 h
# Description: as §1
# [12] = tested on: Ba/F3-CD74-ROS1-WT xenograft; assay type: in vivo, mouse; details: for Tumor volume (average / SE): ROS1-WT xenograft, 100 mg/kg po
# [13] = tested on: HCC78xe3-SLC34A2-ROS1-WT xenograft; assay type: in vivo, mouse; set-up: Tumor volume LWW/2: unit not given here
# [14] = tested on: HCC78xe3-SLC34A2-ROS1-G2032R xenograft; assay type: in vivo, mouse
# [15] = Body weight of Ba/F3-CD74-ROS1-WT xenograft mice; assay type: in vivo, mouse; details: Crizotinib 100 mg/kg po; for Body Weight Change(%) (average / SD): N 6
# [16] = tested on: phospho-ROS1 in HCC78xe3-SLC34A2-ROS1-G2032R xenograft tumors; assay: Immunoblot of xenograft tumors; assay type: in vivo, mouse; details: 3 days treatment
# [17] = tested on: ROS1-rearranged NSCLC patients; details: cited from earlier work
# [18] = Crizotinib 100 mg/kg po; for Body Weight Change(%) (average / SD): N 6
# [19] = Crizotinib 100mg/kg, day 0, single mouse, in mm³
# [20] = Crizotinib 100mg/kg, day 3, single mouse, in mm³
# [21] = Crizotinib 100mg/kg, day 6, single mouse, in mm³
# [22] = Crizotinib 100mg/kg, day 9, single mouse, in mm³
# [23] = Crizotinib 100mg/kg, day 14, single mouse, in mm³
# [24] = Crizotinib 100mg/kg, day 17, single mouse, in mm³
# [25] = Crizotinib 100mg/kg, day 25, single mouse, in mm³
# [26] = Crizotinib 100mg/kg, day 28, single mouse, in mm³
# [27] = Crizotinib 100mg/kg, day 35, single mouse, in mm³
# [28] = Crizotinib 100mg/kg, day 38, single mouse, in mm³
# [29] = Crizotinib 100mg/kg, day 43, single mouse, in mm³
# [30] = Crizotinib 100mg/kg, day 48, single mouse, in mm³
# [31] = Crizotinib 100mg/kg, day 52, single mouse, in mm³
# [32] = Crizotinib 100mg/kg, day 55, single mouse, in mm³
structure (smiles),measurement,setting,value
"C[C@@H](Oc1cc(-c2cnn(C3CCNCC3)c2)cnc1N)c1c(Cl)ccc(F)c1Cl [crizotinib, reference compound]",IC50,[1]; 72 h,[…]
same,IC50,"[6]; BaF3, 72 h",812 nM
same,GI50,"[6]; BaF3, source data sheet",798 nM
same,IC50,[7],21.4 nM
same,Cell growth inhibition,[8],much higher than those to WT cells
same,Inhibition of autophosphorylation of ROS1,[9],potently inhibited
same,Inhibition of autophosphorylation of ROS1,[10],potently inhibited
same,Inhibition of autophosphorylation of ROS1,[11],potently inhibited
same,Tumor shrinkage,"[12]; 100 mg/kg once daily oral, 4 days",induced tumor shrinkage
same,Tumor volume (average / SE),"[12]; day 0, N 6",289 mm3
same,Tumor volume (average / SE),"[12]; day 2, N 6",151 mm3
same,Tumor volume (average / SE),"[12]; day 4, N 6",44 mm3
same,Tumor volume LWW/2,[13]; [19],172.7 and 167.7
same,Tumor volume LWW/2,[13]; [20],103.2 and 100.2
same,Tumor volume LWW/2,[13]; [21],67.8 and 77.3
same,Tumor volume LWW/2,[13]; [22],39.9
same,Tumor volume LWW/2,[13]; [23],13.2
same,Tumor volume LWW/2,[13]; [24],18.9 and 19.3
same,Tumor volume LWW/2,[13]; [25],5.2
same,Tumor volume LWW/2,[13]; [26],6.5
same,Tumor volume LWW/2,[13]; [27],8.7
same,Tumor volume LWW/2,[13]; [28],5.4
same,Tumor volume LWW/2,[13]; [29],4.9
same,Tumor volume LWW/2,[13]; [30],7.2
same,Tumor volume LWW/2,[13]; [31],15.8
same,Tumor volume LWW/2,[13]; [32],16.3
same,Tumor volume LWW/2,"[13]; HCC78_Xe3_WT xenograft, BALB/c-nu mice, Crizotinib 50mg/kg, day 25, individual mice No. 7-12",44.9 and 36.7 and 19.6
same,Tumor volume LWW/2,"[13]; HCC78_Xe3_WT xenograft, BALB/c-nu mice, Crizotinib 50mg/kg, day 43, individual mice No. 7-12",75.9 and 129.8 and 100.2
same,Tumor growth inhibition,[14]; 50 and 100 mg/kg once daily oral,highly resistant to crizotinib
same,Tumor volume LWW/2,[14]; [19],154.5
same,Tumor volume LWW/2,[14]; [20],162.2 and 132.5
same,Tumor volume LWW/2,[14]; [21],164.7 and 110.8
same,Tumor volume LWW/2,[14]; [22],136.2 and 132.2
same,Tumor volume LWW/2,[14]; [23],155.8 and 119.8
same,Tumor volume LWW/2,[14]; [24],174.0 and 154.2
same,Tumor volume LWW/2,"[14]; Crizotinib 100mg/kg, day 21, single mouse, in mm³",274.9 and 242.5
same,Tumor volume LWW/2,[14]; [25],238.7 and 300.2
same,Tumor volume LWW/2,[14]; [26],247.6 and 347.9
same,Tumor volume LWW/2,"[14]; Crizotinib 100mg/kg, day 31, single mouse, in mm³",309.9 and 336.1
same,Tumor volume LWW/2,[14]; [27],418.2 and 509.9
same,Tumor volume LWW/2,[14]; [28],526.9 and 595.5
same,Tumor volume LWW/2,[14]; [29],740.1 and 596.0
same,Tumor volume LWW/2,[14]; [30],745.2 and 699.2
same,Tumor volume LWW/2,[14]; [31],846.3 and 852.5
same,Tumor volume LWW/2,[14]; [32],921.5 and 834.7
same,Tumor volume LWW/2,"[14]; HCC78_Xe3_G2032R xenograft, BALB/c-nu mice, Crizotinib 50mg/kg, day 6, individual mice No. 7-12",127.8 and 126.6
same,Tumor volume LWW/2,"[14]; HCC78_Xe3_G2032R xenograft, BALB/c-nu mice, Crizotinib 50mg/kg, day 17, individual mice No. 7-12",278.8 and 148.6 and 98.2
same,Survival,"[14]; Kaplan–Meier, 50 and 100 mg/kg",did not show any superiority to the control group
same,Body Weight Change(%) (average / SD),"[15]; day 0, average",0.0%
same,Body Weight Change(%) (individual),"[15]; day 0, individual animals",0%
same,Body Weight Change(%) (average / SD),"[15]; day 1, average",-2.0%
same,Body Weight Change(%) (individual),"[15]; day 1, individual animals",-1% and -1.4% and -4.2% and -2.7% and -0.5% and -2.3%
same,Body Weight Change(%) (average / SD),"[15]; day 2, average",-1.9%
same,Body Weight Change(%) (individual),"[15]; day 2, individual animals",-1.9% and -0.5% and -3.3% and -1.8%
same,Body Weight Change(%) (average / SD),"[15]; day 3, average",-1.7%
same,Body Weight Change(%) (individual),"[15]; day 3, individual animals",-2.4% and -1.4% and -4.2% and 2.3% and -2.8%
same,Body Weight Change(%) (average / SD),"[15]; day 4, average",-4.4%
same,Body Weight Change(%) (individual),"[15]; day 4, individual animals",-3.9% and -3.8% and -6.5% and -2.3% and -5.3% and -4.6%
same,Inhibition of phospho-ROS1 in tumors,[16],in SLC34A2-ROS1-WT-expressing HCC78xe3 cells only
same,Median progression-free survival,[17],19.2 months
same,Overall response rate,[17],72%
same,Body Weight Change(%) (average / SD),"[18]; day 0, average",0.0%
same,Body Weight Change(%) (individual),"[18]; day 0, individual animals",0%
same,Body Weight Change(%) (average / SD),"[18]; day 1, average",-1.6%
same,Body Weight Change(%) (average / SD),"[18]; day 2, average",-0.4%
same,Body Weight Change(%) (average / SD),"[18]; day 3, average",-0.3%
same,Body Weight Change(%) (average / SD),"[18]; day 4, average",0.5%
